Test results as given in ChEMBL document CHEMBL1201862, “PubChem BioAssay data set” (2004).
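A five-concentration, 48-hour dose response in 96-well plates underlies each endpoint, interpolated linearly between surrounding concentrations. GI50: concentration for 50% inhibition of growth.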 Activity calls are given as the source filed them. Cut-off read from the data, not from the text of the source: active = GI50 up to about 1.1 µM and inactive = higher.

How the values were obtained:
Assay in all cases: DTP human tumour cell line panel, 48 h
NCI/ADR-RES = tested on: NCI/ADR-RES
UO-31 = tested on: UO-31
M14 = tested on: M14
OVCAR-8 = tested on: OVCAR-8
SN12C = tested on: SN12C
K562 = tested on: K562
HOP-62 = tested on: HOP-62
SF-539 = tested on: SF-539
NCI-H226 = tested on: NCI-H226
U-251 = tested on: U-251
PC-3 = tested on: PC-3
NCI-H522 = tested on: NCI-H522
SW-620 = tested on: SW-620
MCF7 = tested on: MCF7
HT-29 = tested on: HT-29
SF-268 = tested on: SF-268
HOP-92 = tested on: HOP-92
786-0 = tested on: 786-0
SR = tested on: SR
DU-145 = tested on: DU-145

Row | SMILES | GI50 (NCI/ADR-RES) | GI50 (UO-31) | GI50 (M14) | GI50 (OVCAR-8) | GI50 (SN12C) | GI50 (K562) | GI50 (HOP-62) | GI50 (SF-539) | GI50 (NCI-H226) | GI50 (U-251) | GI50 (PC-3) | GI50 (NCI-H522) | GI50 (SW-620) | GI50 (MCF7) | GI50 (HT-29) | GI50 (SF-268) | GI50 (HOP-92) | GI50 (786-0) | GI50 (SR) | GI50 (DU-145)
1 | CCOC(=O)CSc1nnc(C(Sc2nc(-c3ccccc3)c(-c3ccccc3)[nH]2)C(C)C)n1-c1ccccc1 (stereo not given) | 26.9 µM (inactive) | 17.4 µM (inactive) | 14.3 µM (inactive) | 19.1 µM (inactive) | 15.9 µM (inactive) | 24.7 µM (inactive) | > 10 µM (inactive) | 13 µM (inactive) | 17.1 µM (inactive) | > 10 µM (inactive) | 28.6 µM (inactive) | 15.2 µM (inactive) | 19 µM (inactive) | 34.7 µM (inactive) | 14 µM (inactive) | 17.9 µM (inactive) | > 10 µM (inactive) | 16 µM (inactive) | 31.2 µM (inactive) | 39.6 µM (inactive)
2 | CCCCCCCCCCN(CCCCCCCCCC)C(=O)COc1c2cc(C(C)(C)C)cc1Cc1cc(C(C)(C)C)cc(c1OCC(=O)N(CCCCCCCCCC)CCCCCCCCCC)Cc1cc(C(C)(C)C)cc(c1OCC(=O)N(CCCCCCCCCC)CCCCCCCCCC)Cc1cc(C(C)(C)C)cc(c1OCC(=O)N(CCCCCCCCCC)CCCCCCCCCC)C2 | 14.8 µM (inactive) | 22 µM (inactive) | 2.92 µM (inactive) | 4.16 µM (inactive) | 13.4 µM (inactive) | 1.9 µM (inactive) | 16.1 µM (inactive) | 4.34 µM (inactive) | 19.3 µM (inactive) | 11.2 µM (inactive) | 9.93 µM (inactive) | 3.18 µM (inactive) | 1.93 µM (inactive) | 3.59 µM (inactive) | 2.34 µM (inactive) | 15.1 µM (inactive) | < 0.01 µM (active) | 11.2 µM (inactive) | 2.96 µM (inactive) | 17.8 µM (inactive)
3 | Nc1ccc2c(c1)C(=O)c1ccc(F)cc1-2 | > 100 µM (inactive) | > 100 µM (inactive) | > 100 µM (inactive) | > 100 µM (inactive) | > 100 µM (inactive) | > 100 µM (inactive) | > 100 µM (inactive) | > 100 µM (inactive) | > 100 µM (inactive) | 40.8 µM (inactive) | > 100 µM (inactive) | > 100 µM (inactive) | > 100 µM (inactive) | > 100 µM (inactive) | > 100 µM (inactive) | > 100 µM (inactive) | > 100 µM (inactive) | > 100 µM (inactive) | 87.1 µM (inactive) | > 100 µM (inactive)
4 | O=C1CC(c2cccc([N+](=O)[O-])c2)C2(C(=O)NC(=S)NC2=O)C(c2cccc([N+](=O)[O-])c2)C1 (stereo not given) | > 100 µM (inactive) | 47.2 µM (inactive) | 21.9 µM (inactive) | 21.2 µM (inactive) | 19.9 µM (inactive) | 52 µM (inactive) | 30.3 µM (inactive) | 40.6 µM (inactive) | 21 µM (inactive) | 26.2 µM (inactive) | 51.6 µM (inactive) | 30 µM (inactive) | 50.7 µM (inactive) | 26.8 µM (inactive) | 40.9 µM (inactive) | 15.9 µM (inactive) | 28.2 µM (inactive) | 34.8 µM (inactive) | 49.4 µM (inactive) | 34.1 µM (inactive)
5 | CCC1CC2CN3CCc4c([nH]c5c(-c6c(OC)ccc7c8c([nH]c67)[C@]6(C(=O)OC)CC7CC(CC)C6N(CC8)C7)c(O)ccc45)[C@](C(=O)OC)(C2)C13 (stereo not given in full) | 20.4 µM (inactive) | 12.7 µM (inactive) | 24.9 µM (inactive) | 20.5 µM (inactive) | 4.34 µM (inactive) | 6.19 µM (inactive) | 15.2 µM (inactive) | 19.5 µM (inactive) | 4.92 µM (inactive) | 12.9 µM (inactive) | 13.6 µM (inactive) | 15.7 µM (inactive) | 12.4 µM (inactive) | 6.82 µM (inactive) | 5.37 µM (inactive) | 12.1 µM (inactive) | 12.9 µM (inactive) | 12.6 µM (inactive) | 13.3 µM (inactive) | 14.9 µM (inactive)
6 | COC1(OC)CCc2c(sc3ncnc(Nc4cccc(Br)c4)c23)C1 | 25.5 µM (inactive) | 3.22 µM (inactive) | 44.4 µM (inactive) | 34.6 µM (inactive) | 68.4 µM (inactive) | 26.2 µM (inactive) | 74.5 µM (inactive) | > 100 µM (inactive) | 43.8 µM (inactive) | 61.5 µM (inactive) | 43.3 µM (inactive) | 12.4 µM (inactive) | 21.7 µM (inactive) | 40.5 µM (inactive) | 20 µM (inactive) | 69.5 µM (inactive) | 30.5 µM (inactive) | 25.1 µM (inactive) | 26.2 µM (inactive) | 10.9 µM (inactive)
7 | O=[N+]([O-])c1ccc2nc(O)n[n+]([O-])c2c1 | > 100 µM (inactive) | > 100 µM (inactive) | > 100 µM (inactive) | > 100 µM (inactive) | > 100 µM (inactive) | > 100 µM (inactive) | > 100 µM (inactive) | > 100 µM (inactive) | > 100 µM (inactive) | > 100 µM (inactive) | > 100 µM (inactive) | > 100 µM (inactive) | > 100 µM (inactive) | > 100 µM (inactive) | > 100 µM (inactive) | > 100 µM (inactive) | > 100 µM (inactive) | > 100 µM (inactive) | > 20.6 µM (inactive) | > 100 µM (inactive)
8 | COc1ccc(SCc2cc(OC)ccc2OC)cc1 | 13.2 µM (inactive) | 27.6 µM (inactive) | 57.5 µM (inactive) | 96.4 µM (inactive) | 55.3 µM (inactive) | 4.24 µM (inactive) | 59.8 µM (inactive) | 39.2 µM (inactive) | 25.3 µM (inactive) | 11.2 µM (inactive) | 32.8 µM (inactive) | 18.8 µM (inactive) | 10.6 µM (inactive) | 15.1 µM (inactive) | 13.7 µM (inactive) | > 56.6 µM (inactive) | 13.5 µM (inactive) | > 85.5 µM (inactive) | 6.55 µM (inactive) | 44.4 µM (inactive)
9 | CC1(C)[C@@H]2CC[C@@]1(C)C1(S[S+]1[O-])C21Cc2ccccc2C1 (stereo not given in full) | 25.6 µM (inactive) | 21.4 µM (inactive) | 33.4 µM (inactive) | 17.3 µM (inactive) | 18.1 µM (inactive) | 17.4 µM (inactive) | 81.1 µM (inactive) | 24.5 µM (inactive) | > 100 µM (inactive) | 24.9 µM (inactive) | 17.9 µM (inactive) | 15.8 µM (inactive) | 14.7 µM (inactive) | 22.1 µM (inactive) | 17.9 µM (inactive) | 33.1 µM (inactive) | 23.3 µM (inactive) | 16.4 µM (inactive) | 14.5 µM (inactive) | 21.3 µM (inactive)
10 | O=S(=O)(O)/C(=N\c1cccc(Cc2ccccc2)c1)Nc1cccc(Cc2ccccc2)c1 | 18.2 µM (inactive) | 15.8 µM (inactive) | 16.4 µM (inactive) | 18.5 µM (inactive) | 19.5 µM (inactive) | 31.4 µM (inactive) | 32.6 µM (inactive) | 16.3 µM (inactive) | 18 µM (inactive) | 19.6 µM (inactive) | 18.3 µM (inactive) | 14.9 µM (inactive) | 23.7 µM (inactive) | 19.2 µM (inactive) | 18 µM (inactive) | 17.7 µM (inactive) | 14.9 µM (inactive) | 15.2 µM (inactive) | 21.9 µM (inactive) | 17 µM (inactive)
11 | Cc1c(-c2nc(N)nc(C3CC3)c2C)nc(N)nc1C1CC1 | > 100 µM (inactive) | > 100 µM (inactive) | > 100 µM (inactive) | > 100 µM (inactive) | > 100 µM (inactive) | > 100 µM (inactive) | > 100 µM (inactive) | > 100 µM (inactive) | > 100 µM (inactive) | > 100 µM (inactive) | > 100 µM (inactive) | > 100 µM (inactive) | > 100 µM (inactive) | > 100 µM (inactive) | > 100 µM (inactive) | > 100 µM (inactive) | > 100 µM (inactive) | > 100 µM (inactive) | > 100 µM (inactive) | > 100 µM (inactive)
12 | CCCCCCCCCCCCC1N=C(N)N2CCCC2=C1C(=O)OC (stereo not given) | 5.92 µM (inactive) | 8.26 µM (inactive) | 1.73 µM (inactive) | 2.49 µM (inactive) | 2.75 µM (inactive) | 1.38 µM (inactive) | 4.24 µM (inactive) | 5.41 µM (inactive) | 19.1 µM (inactive) | 1.65 µM (inactive) | 1.62 µM (inactive) | 1.76 µM (inactive) | 1.7 µM (inactive) | 1.77 µM (inactive) | 1.67 µM (inactive) | 3.44 µM (inactive) | 4.35 µM (inactive) | 1.74 µM (inactive) | 2.13 µM (inactive) | 8.07 µM (inactive)
13 | Nc1cccc(-c2cc(O)c3cc4c(cc3n2)OCO4)c1 | 0.581 µM (active) | 12.5 µM (inactive) | 0.993 µM (active) | 2.11 µM (inactive) | 4.59 µM (inactive) | 0.792 µM (active) | 1.87 µM (inactive) | 0.544 µM (active) | 1.85 µM (inactive) | 1.81 µM (inactive) | 0.644 µM (active) | 0.273 µM (active) | 0.519 µM (active) | 0.592 µM (active) | 1.74 µM (inactive) | 1.77 µM (inactive) | 1.02 µM (active) | 2.16 µM (inactive) | 0.191 µM (active) | 0.64 µM (active)
